Usually IC50 stands for the concentration that inhibits the measured activity by half. A low value points to greater potency in that assay.

The source of these data is patent publication US10370333B2 (Sanford Burnham Prebys Medical Discovery Institute, priority 2012, dated 2019).

For the first experiment, the target named is TNAP (Homo sapiens (Human), UniProt P05186). Nature of the experiment: TNAP (PPi) inhibition assay, pyrophosphate as substrate. In kind it is biochemical.
Conditions: not given
In short, it runs like this:
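Secreted epitope-tagged human TNAP from transiently transfected COS-1 cells, dialyzed to remove phosphate. Inhibitors tested kinetically at pH 7.4 with PPi as substrate; released phosphate quantified colorimetrically with Biomol Green reagent.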
On to `COc1ccc(OC)c(S(=O)(=O)Nc2cnc3ccc(C(=O)NC4CCCCC4)cc3c2)c1` [Example IX-16, 3-(2,5-Dimethoxy-benzenesulfonylamino)-quinoline-6-carboxylic Acid Cyclohexylamide], for which the IC50 is less than 100 nM. For `NC(=O)c1cncc(NS(=O)(=O)c2cc(Br)ccc2OC(F)(F)F)c1` [Example XII-13, 5-(5-Bromo-2-(trifluoromethoxy)phenylsulfonamido)nicotinamide], the IC50 was less than 100 nM. The same measure, in the same setting: as for `CNC(=O)c1cncc(NS(=O)(=O)c2cc(Br)ccc2OC(F)(F)F)c1` [Example XII-14, 5-(5-Bromo-2-(trifluoromethoxy)phenylsulfonamido)-N-methylnicotinamide], the figure is 100 to 1000 nM; as for `COC(=O)c1cncc(NS(=O)(=O)c2cc(OC(F)(F)F)ccc2OC)c1` [Example XII-15, Methyl 5-(2-methoxy-5-(trifluoromethoxy)phenylsulfonamido)nicotinate], 100 to 1000 nM. As to `CCCOC(=O)c1cncc(NS(=O)(=O)c2cc(OC(F)(F)F)ccc2OC)c1` [Example XII-16, Propyl 5-(2-methoxy-5-(trifluoromethoxy)phenylsulfonamido)nicotinate], the IC50 was less than 100 nM. On the same count and under the same terms, as for `COc1ccc(OC(F)(F)F)cc1S(=O)(=O)Nc1cncc(C(=O)OC2CCCCC2)c1` [Example XII-17, Cyclohexyl 5-(2-methoxy-5-(trifluoromethoxy)phenylsulfonamido)nicotinate], the figure is less than 100 nM. On the same count and under the same terms, as for `COc1ccc(OC(F)(F)F)cc1S(=O)(=O)Nc1cncc(C(=O)Oc2ccccc2)c1` [Example XII-18, Phenyl 5-(2-methoxy-5-(trifluoromethoxy)phenylsulfonamido)nicotinate], the figure is less than 100 nM. Still for that read-out and setting: the figure for `CNC(=O)c1cncc(NS(=O)(=O)c2cc(OC(F)(F)F)ccc2OC)c1` [Example XII-20, 5-(2-Methoxy-5-(trifluoromethoxy)phenylsulfonamido)-N-methylnicotinamide] is 100 to 1000 nM; for `CCCNC(=O)c1cncc(NS(=O)(=O)c2cc(OC(F)(F)F)ccc2OC)c1` [Example XII-21, 5-(2-Methoxy-5-(trifluoromethoxy)phenylsulfonamido)-N-propylnicotinamide] it is more than 1000 nM.

In turn, `COc1ccc(OC(F)(F)F)cc1S(=O)(=O)Nc1cncc(C(=O)NC2CCCCC2)c1` [Example XII-22, 5-(2-Methoxy-5-(trifluoromethoxy)phenylsulfonamido)-N-cyclohexylnicotinamide] displayed an IC50 of 100 to 1000 nM.

`COC(=O)c1cncc(N(C)S(=O)(=O)c2cc(OC)ccc2OC(F)(F)F)c1` [Example XII-23, 5-[(5-Methoxy-2-trifluoromethoxy-benzenesulfonyl)-methyl-amino]-nicotinic Acid Methyl Ester] yielded an IC50 of more than 1000 nM.

Another experiment deals with TNAP human plasma (Homo sapiens, UniProt P05186).
Assay: not given
The following applies: substrate pNPP. In kind it is biochemical.
Turning to `COc1ccc(OC)c(S(=O)(=O)Nc2cnc3ccc(C(=O)NC4CCCCC4)cc3c2)c1` [Example IX-16, 3-(2,5-Dimethoxy-benzenesulfonylamino)-quinoline-6-carboxylic Acid Cyclohexylamide], the IC50 is less than 5000 nM.
